The test has as its target T1, human factor XIa (Homo sapiens, UniProt P03951).
T1 construct: purchased Kordia
The test can be described thus: Measurement of FXIa inhibition (fluorogenic peptide substrate Boc-Glu(OBzl)-Ala-Arg-AMC). The settings on record: factor XIa from Kordia, 15 min preincubation, 30 min at 22° C., fluorescence. In kind it is biochemical. As to the method: The factor XIa inhibition of the inventive substances is determined using a biochemical test system which utilizes the reaction of a peptidic factor XIa substrate to determine the enzymatic activity of human factor XIa. Here, factor XIa cleaves from the peptic factor XIa substrate the C-terminal aminomethylcoumarin (AMC), the fluorescence of which is measured. The determinations are carried out in microtitre plates.
Test substances are dissolved in dimethyl sulphoxide and serially diluted in dimethyl sulphoxide (3000 μM to 0.0078 μM; resulting final concentrations in the test: 50 μM to 0.00013 μM). In each case 1 μl of the diluted substance solutions is placed into the wells of white microtitre plates from Greiner (384 wells). Subsequently, the following are added successively: 20 μl of assay buffer (50 mmol/l Tris buffer pH 7.4; 100 mmol/l sodium chloride; 5 mmol/l calcium chloride; 0.1% bovine serum albumin) and 20 μl of factor XIa from Kordia (0.45 nM in assay buffer). After 15 min of incubation, the enzyme reaction is started by addition of 20 μl of the factor XIa substrate Boc-Glu(OBzl)-Ala-Arg-AMC dissolved in assay buffer (10 μM in assay buffer) from Bachem, the mixture is incubated at room temperature (22° C.) for 30 min and fluorescence is then measured (excitation: 360 nm, emission: 460 nm). The measured emissions of the test mixtures with test substance are compared to those of control mixtures without test substance (only dimethyl sulphoxide instead of test substance in dimethyl sulphoxide), and the IC50 values are calculated from the concentration/activity relationships.

Where a name gives a salt, the structure may show the parent alone.

T1 sequence (P03951 388-625 limits assumed): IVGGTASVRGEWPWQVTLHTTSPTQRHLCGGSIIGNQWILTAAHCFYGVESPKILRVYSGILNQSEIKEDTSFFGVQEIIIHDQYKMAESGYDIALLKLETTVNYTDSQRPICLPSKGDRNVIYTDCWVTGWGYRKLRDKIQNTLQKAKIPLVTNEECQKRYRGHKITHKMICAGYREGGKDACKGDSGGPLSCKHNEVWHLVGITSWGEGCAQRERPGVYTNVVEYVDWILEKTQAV
T1 sequence (P03951 19-387 partner limits assumed): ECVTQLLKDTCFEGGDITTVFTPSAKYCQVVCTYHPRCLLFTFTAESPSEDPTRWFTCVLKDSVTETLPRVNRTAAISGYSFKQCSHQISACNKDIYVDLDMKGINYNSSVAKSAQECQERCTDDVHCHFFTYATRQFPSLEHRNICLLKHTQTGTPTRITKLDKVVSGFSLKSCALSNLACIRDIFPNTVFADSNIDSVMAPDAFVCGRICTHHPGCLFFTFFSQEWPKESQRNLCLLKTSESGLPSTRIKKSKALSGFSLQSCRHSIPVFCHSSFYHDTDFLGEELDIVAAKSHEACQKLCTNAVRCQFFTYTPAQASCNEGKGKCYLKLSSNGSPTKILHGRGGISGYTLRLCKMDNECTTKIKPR

For the molecule `Cc1cc(C(=O)N[C@H]2CC[C@H](O)CC2)ccc1-c1ccc(C[C@H](NC(=O)[C@H]2CC[C@H](CN)CC2)C(=O)Nc2ccc(-c3nnc(C(F)(F)C(F)(F)C(=O)O)[nH]3)cc2)cc1` (single isomer, unassigned; enantiomer 1) [Example 168], the half-inhibitory concentration (IC50) (in general, the concentration at which inhibition is half-maximal) turned out to be 0.5 nM.
The molecule `Cc1cc(C(=O)N[C@H]2CC[C@H](O)CC2)ccc1-c1ccc(C[C@@H](NC(=O)[C@H]2CC[C@H](CN)CC2)C(=O)Nc2ccc(-c3nnc(C(F)(F)C(F)(F)C(=O)O)[nH]3)cc2)cc1` (single isomer, unassigned; enantiomer 2) [Example 105] yielded an IC50 of 65 nM. Against the preceding molecule, the IC50 is about 130-fold higher.
Under `Cc1cc(C(=O)NC2CCNCC2)ccc1-c1ccc(C[C@H](NC(=O)[C@H]2CC[C@H](CN)CC2)C(=O)Nc2ccc(-c3nn[nH]n3)cc2)cc1` [Example 1, 4′-[(2S)-2-({[trans-4-(Aminomethyl)cyclohexyl]carbonyl}amino)-3-oxo-3-{[4-(2H-tetrazol-5-yl)phenyl]amino}propyl]-2-methyl-N-(piperidin-4-yl)biphenyl-4-carboxamide hydrochloride] stands 2 nM.
The same measure for `CNC(=O)c1ccc(-c2ccc(C[C@H](NC(=O)[C@H]3CC[C@H](CN)CC3)C(=O)Nc3ccc(-c4nn[nH]n4)cc3)cc2)c(C)c1` [Example 19, 4′-[(2S)-2-({[trans-4-(Aminomethyl)cyclohexyl]carbonyl}amino)-3-oxo-3-{[4-(2H-tetrazol-5-yl)phenyl]amino}propyl]-N,2-dimethylbiphenyl-4-carboxamide]: 2.9 nM.
On to `Cc1cc(C(=O)NC2CCNCC2)ccc1-c1ccc(C[C@H](NC(=O)[C@H]2CC[C@H](CN)CC2)C(=O)Nc2ccc(-c3nnc(CC(C)C)[nH]3)cc2)cc1` [Example 58, 4′-[(2S)-2-({[trans-4-(Aminomethyl)cyclohexyl]carbonyl}amino)-3-{[4-(3-isobutyl-4H-1,2,4-triazol-5-yl)phenyl]amino}-3-oxopropyl]-2-methyl-N-(piperidin-4-yl)biphenyl-4-carboxamide hydrochloride], for which it took 41 nM to reach half-maximal inhibition (IC50).
As to `Cc1cc(C(=O)N[C@@H]2CCCCNC2=O)ccc1-c1ccc(C[C@H](NC(=O)[C@H]2CC[C@H](CN)CC2)C(=O)Nc2ccc(-c3nn[nH]n3)cc2)cc1` [Example 64, 4′-[(2S)-2-({[trans-4-(Aminomethyl)cyclohexyl]carbonyl}amino)-3-oxo-3-{[4-(2H-tetrazol-5-yl)phenyl]amino}propyl]-2-methyl-N-[(3R)-2-oxoazepan-3-yl]biphenyl-4-carboxamide hydrochloride], the IC50 was 1.6 nM.
As for `Cc1cc(C(=O)NC(CN(C)C)CN(C)C)ccc1-c1ccc(C[C@H](NC(=O)[C@H]2CC[C@H](CN)CC2)C(=O)Nc2ccc(-c3nn[nH]n3)cc2)cc1` [Example 66, 4′-[(2S)-2-({[trans-4-(Aminomethyl)cyclohexyl]carbonyl}amino)-3-oxo-3-{[4-(2H-tetrazol-5-yl)phenyl]amino}propyl]-N-[1,3-bis(dimethylamino)propan-2-yl]-2-methylbiphenyl-4-carboxamide hydrochloride], half-maximal inhibition (IC50) was put at 29 nM.
Under `COc1cc(C(=O)NC2CCC(N(C)C)CC2)ccc1-c1ccc(C[C@H](NC(=O)[C@H]2CC[C@H](CN)CC2)C(=O)Nc2ccc(-c3nn[nH]n3)cc2)cc1` (stereo partly drawn) [Example 67, 4′-[(2S)-2-({[trans-4-(Aminomethyl)cyclohexyl]carbonyl}amino)-3-oxo-3-{[4-(2H-tetrazol-5-yl)phenyl]amino}propyl]-N-[4-(dimethylamino)cyclohexyl]-2-methoxybiphenyl-4-carboxamide hydrochloride] stands 4.6 nM; under `Cc1cc(C(=O)NC2CCC(N(C)C)CC2)ccc1-c1ccc(C[C@H](NC(=O)[C@H]2CC[C@H](CN)CC2)C(=O)Nc2ccc3c(=O)[nH][nH]c3c2)cc1` (stereo partly drawn) [Example 68, 4′-{(2S)-2-({[trans-4-(Aminomethyl)cyclohexyl]carbonyl}amino)-3-oxo-3-[(3-oxo-2,3-dihydro-1H-indazol-6-yl)amino]propyl}-N-[4-(dimethylamino)cyclohexyl]-2-methylbiphenyl-4-carboxamide hydrochloride], 8.3 nM.
The same measure for `Cc1cc(C(=O)N2CCS(=O)(=O)CC2)ccc1-c1ccc(C[C@H](NC(=O)[C@H]2CC[C@H](CN)CC2)C(=O)Nc2ccc(-c3nn[nH]n3)cc2)cc1` [Example 69, trans-4-(Aminomethyl)-N-[(2S)-3-{4′-[(1,1-dioxidothiomorpholin-4-yl)carbonyl]-2′-methyl-biphenyl-4-yl}-1-oxo-1-{[4-(2H-tetrazol-5-yl)phenyl]amino}propan-2-yl]cyclohexanecarboxamide hydrochloride]: 2.4 nM; for `Cc1cc(C(=O)NC2CCC(N(C)C)CC2)ccc1-c1ccc(C[C@H](NC(=O)[C@H]2CC[C@H](CN)CC2)C(=O)Nc2ccc(-c3nn[nH]n3)cc2)cc1` (stereo partly drawn) [Example 70, 4′-[(2S)-2-({[trans-4-(Aminomethyl)cyclohexyl]carbonyl}amino)-3-oxo-3-{[4-(2H-tetrazol-5-yl)phenyl]amino}propyl]-N-[4-(dimethylamino)cyclohexyl]-2-methylbiphenyl-4-carboxamide hydrochloride]: 1.6 nM; for `COc1cc(C(=O)N[C@@H]2CCNC2)ccc1-c1ccc(C[C@H](NC(=O)[C@H]2CC[C@H](CN)CC2)C(=O)Nc2ccc(-c3nn[nH]n3)cc2)cc1` [Example 71, 4′-[(2S)-2-({[trans-4-(Aminomethyl)cyclohexyl]carbonyl}amino)-3-oxo-3-{[4-(2H-tetrazol-5-yl)phenyl]amino}propyl]-2-methoxy-N-[(3R)-pyrrolidin-3-yl]biphenyl-4-carboxamide hydrochloride]: 7.4 nM.
Under `Cc1cc(C(=O)N[C@H]2CCCN(C)C2)ccc1-c1ccc(C[C@H](NC(=O)[C@H]2CC[C@H](CN)CC2)C(=O)Nc2ccc(-c3nn[nH]n3)cc2)cc1` [Example 73, 4′-[(2S)-2-({[trans-4-(Aminomethyl)cyclohexyl]carbonyl}amino)-3-oxo-3-{[4-(2H-tetrazol-5-yl)phenyl]amino}propyl]-2-methyl-N-[(3S)-1-methylpiperidin-3-yl]biphenyl-4-carboxamide hydrochloride] stands 3.4 nM.
`Cc1cc(C(=O)NC2CCCNC2=O)ccc1-c1ccc(C[C@H](NC(=O)[C@H]2CC[C@H](CN)CC2)C(=O)Nc2ccc(-c3nc(C(F)F)n[nH]3)cc2)cc1` (stereo partly drawn) [Example 74, 4′-[(2S)-2-({[trans-4-(Aminomethyl)cyclohexyl]carbonyl}amino)-3-({4-[3-(difluoromethyl)-1H-1,2,4-triazol-5-yl]phenyl}amino)-3-oxopropyl]-2-methyl-N-(2-oxopiperidin-3-yl)biphenyl-4-carboxamide hydrochloride] came in with an IC50 of 1.3 nM. This IC50 lies about 2.6-fold lower than the previous one.
The same measure for `Cc1cc(C(=O)N[C@@H]2CCNC2)ccc1-c1ccc(C[C@H](NC(=O)[C@H]2CC[C@H](CN)CC2)C(=O)Nc2ccc(-c3nc(C(F)(F)C(F)(F)F)n[nH]3)cc2)cc1` [Example 75, 4′-[(2S)-2-({[trans-4-(Aminomethyl)cyclohexyl]carbonyl}amino)-3-oxo-3-({4-[3-(pentafluoroethyl)-1H-1,2,4-triazol-5-yl]phenyl}amino)propyl]-2-methyl-N-[(3R)-pyrrolidin-3-yl]biphenyl-4-carboxamide hydrochloride]: 2.5 nM.

(Values after patent US20160272617A1, “SUBSTITUTED PHENYLALANINE DERIVATIVES” (BAYER PHARMA AKTIENGESELLSCHAFT, priority 2013, published 2016).)
